Measured values from patent US8927559B2, “Quinazolinone-type compounds as CRTH2 antagonists” (Merck Sharp & Dohme Corp., priority 2010, dated 2015).
Several values for one entry are separate records, joined by “and”; a condition that tells them apart may be missing. Equal entries are not always repeated.

Each compound was assayed against T1, CRTH2 receptor (hCRTH2) (Homo sapiens, UniProt Q9Y5Y4) (assay: Radioligand binding assay ([3H]PGD2 competition, membranes of HEK-hCRTH2 cell line)). Conditions: 3.0 nM [3H]PGD2, HEK-hCRTH2 membranes, 60 min, room temperature; read-out: Ki.
T1 construct: expressed in transfected cells; host or cells: HEK cells (HEK-hCRTH2 cell line), membranes
T1 sequence (Q9Y5Y4 1-395): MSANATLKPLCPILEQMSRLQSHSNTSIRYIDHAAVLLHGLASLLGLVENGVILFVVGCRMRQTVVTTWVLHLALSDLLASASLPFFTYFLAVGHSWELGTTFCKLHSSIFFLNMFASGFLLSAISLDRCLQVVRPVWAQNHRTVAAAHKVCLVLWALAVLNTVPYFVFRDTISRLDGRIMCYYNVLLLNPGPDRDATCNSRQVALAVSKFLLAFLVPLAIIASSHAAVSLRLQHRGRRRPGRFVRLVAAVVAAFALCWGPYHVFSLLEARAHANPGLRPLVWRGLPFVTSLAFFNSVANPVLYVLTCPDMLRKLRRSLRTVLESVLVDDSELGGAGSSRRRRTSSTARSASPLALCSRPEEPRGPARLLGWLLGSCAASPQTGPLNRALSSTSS
Procedure: Competing ligands were diluted in dimethylsulfoxide (Me2SO) that was kept constant at 1% (v/v) of the final incubation volume. The reaction was initiated by the addition of 8-20 μg of membrane protein prepared from a HEK-hCRTH2 cell line. Total and non-specific binding were determined in the absence and the presence of […] PGD2, respectively. […] The reaction was routinely conducted for 60 min at room temperature and terminated by rapid filtration through prewetted (0.3% polyethyleneimine) 96-well printed filtermate (Wallac) using a Tomtec harvester. After washing with cold buffer, the filter was dried for 2 minutes in microwave, and Meltilex Scintillator sheet (Wallac) was melted on for 2 min.

`O=C(O)CCCCc1nc2cc(C3=NOC(c4nc5ccccc5o4)C3)ccc2c(=O)n1-c1ccc(F)cc1` (single isomer, unassigned) [Example 28D, 5-(7-(5-(benzo[d]oxazol-2-yl)-4,5-dihydroisoxazol-3-yl)-3-(4-fluorophenyl)-4-oxo-3,4-dihydroquinazolin-2-yl)pentanoic acid] and `O=C(O)CCCCc1nc2cc(C3=NOC(c4ccccc4)C3)ccc2c(=O)n1-c1ccc(F)cc1` (centres unmarked) [Example 15, 5-(3-(4-fluorophenyl)-4-oxo-7-(5-phenyl-4,5-dihydroisoxazol-3-yl)-3,4-dihydroquinazolin-2-yl)pentanoic acid] fall in the same range of Ki: 10 to 50 nM for the first, 10 to 50 nM for the second.

`O=C(O)CCCCc1nc2cc(C3=NOC(c4nc5ccccc5o4)C3)ccc2c(=O)n1-c1ccc(F)cc1` (single isomer, unassigned) [Example 28E, 5-(7-(5-(benzo[d]oxazol-2-yl)-4,5-dihydroisoxazol-3-yl)-3-(4-fluorophenyl)-4-oxo-3,4-dihydroquinazolin-2-yl)pentanoic acid] and `O=C(O)CCCCc1nc2cc(C3=NOC(c4ccccn4)C3)ccc2c(=O)n1-c1ccc(F)cc1` (centres unmarked) [Example 15G] cannot be ordered by Ki: at most 10 nM for the first, 10 to 50 nM for the second.

`CC(c1ccccc1)C1(C)CC(c2ccc3c(=O)n(-c4ccc(F)cc4)c(CCCCC(=O)O)nc3c2)=NO1` (single isomer, unassigned) [Example 42, 5-(3-(4-fluorophenyl)-7-(5-methyl-5-(1-phenylethyl)-4,5-dihydroisoxazol-3-yl)-4-oxo-3,4-dihydroquinazolin-2-yl)pentanoic acid] and `COCC1(c2ccccc2)CC(c2ccc3c(=O)n(-c4ccc(F)cc4)c(CCCCC(=O)O)nc3c2)=NO1` (centres unmarked) [Example 15V] cannot be ordered by Ki: at most 10 nM for the first, 10 to 50 nM for the second.

`CC(c1ccccc1)C1(C)CC(c2ccc3c(=O)n(-c4ccc(F)cc4)c(CCCCC(=O)O)nc3c2)=NO1` (single isomer, unassigned) [Example 42E, 5-(3-(4-fluorophenyl)-7-(5-methyl-5-(1-phenylethyl)-4,5-dihydroisoxazol-3-yl)-4-oxo-3,4-dihydroquinazolin-2-yl)pentanoic acid] and `CC1(c2ccccc2)CC(c2ccc3c(=O)n(-c4ccc(Cl)cc4)c(CCCCC(=O)O)nc3c2)=NO1` (centres unmarked) [Example 15i] cannot be ordered by Ki: at most 10 nM for the first, at most 10 nM for the second.

`CC(c1ccccc1)C1(C)CC(c2ccc3c(=O)n(-c4ccc(F)cc4)c(CCCCC(=O)O)nc3c2)=NO1` (single isomer, unassigned) [Example 42F, 5-(3-(4-fluorophenyl)-7-(5-methyl-5-(1-phenylethyl)-4,5-dihydroisoxazol-3-yl)-4-oxo-3,4-dihydroquinazolin-2-yl)pentanoic acid] and `O=C(O)CCCCc1nc2cc(C3=NOC4(CC[C@H](c5ccccc5)C4)C3)ccc2c(=O)n1-c1ccc(F)cc1` (single isomer, unassigned) [Example 139] cannot be ordered by Ki: at most 10 nM for the first, at most 10 nM for the second.

`CC(c1ccccc1)C1(C)CC(c2ccc3c(=O)n(-c4ccc(F)cc4)c(CCCCC(=O)O)nc3c2)=NO1` (single isomer, unassigned) [Example 42G, 5-(3-(4-fluorophenyl)-7-(5-methyl-5-(1-phenylethyl)-4,5-dihydroisoxazol-3-yl)-4-oxo-3,4-dihydroquinazolin-2-yl)pentanoic acid] and `O=C(O)CCCCc1nc2cc(C3=NOC4(CC[C@@H](c5ccccc5)C4)C3)ccc2c(=O)n1-c1ccc(F)cc1` (single isomer, unassigned) [Example 141] cannot be ordered by Ki: 10 to 50 nM for the first, at most 10 nM for the second.

`O=C(O)CSc1nc2cc(-c3cscn3)ccc2c(=O)n1-c1ccc(F)cc1` [Example 1K] and `O=C(O)CCCCc1nc2cc(-c3ccon3)ccc2c(=O)n1-c1ccc(F)cc1` [Example 5K] fall in the same range of Ki: 10 to 50 nM for the first, 10 to 50 nM for the second.

`O=C(O)CCCCc1nc2cc(-c3cc(C4CC4)on3)ccc2c(=O)n1-c1ccc(F)cc1` [Example 5J] and `O=C(O)CCCCc1nc2cc(-c3cc(C4CC4)no3)ccc2c(=O)n1-c1ccc(F)cc1` [Example 8C, 5-(7-(3-Cyclopropylisoxazol-5-yl)-3-(4-fluorophenyl)-4-oxo-3,4-dihydroquinazolin-2-yl)pentanoic acid] fall in the same range of Ki: 10 to 50 nM for the first, 10 to 50 nM for the second.

`O=C(O)CCCCc1nc2cc(-c3cc(C(F)(F)F)on3)ccc2c(=O)n1-c1ccc(F)cc1` [Example 5M] and `Cc1cc(-c2ccc3c(=O)n(-c4ccc(F)cc4)c(CCCCC(=O)O)nc3c2)no1` [Example 5i] cannot be ordered by Ki: at most 10 nM for the first, 10 to 50 nM for the second.

`O=C(O)CCCCc1nc2cc(-c3cc(-c4ccc(F)cc4)on3)ccc2c(=O)n1-c1ccc(F)cc1` [Example 5N] and `Cc1cc(-c2ccc3c(=O)n(-c4ccc(F)cc4)c(CCCCC(=O)O)nc3c2)on1` [Example 8D] cannot be ordered by Ki: at most 10 nM for the first, at most 10 nM for the second.

`O=C(O)CCCCc1nc2cc(-c3cc(C(=O)C4CC4)on3)ccc2c(=O)n1-c1ccc(F)cc1` [Example 5Q] and `Cn1cc(-c2ccc3c(=O)n(-c4ccc(F)cc4)c(CCCCC(=O)O)nc3c2)nn1` [Example 9, 5-(3-(4-Fluorophenyl)-7-(1-methyl-1H-1,2,3-triazol-4-yl)-4-oxo-3,4-dihydroquinazolin-2-yl)pentanoic acid] cannot be ordered by Ki: 10 to 50 nM for the first, at most 10 nM for the second.

`Cc1cc(-c2ccc3c(=O)n(-c4ccc(C(F)(F)F)cc4)c(CCCCC(=O)O)nc3c2)no1` [Example 13, 5-{7-(5-Methylisoxazol-3-yl)-4-oxo-3-[4-(trifluoromethyl)phenyl]-3,4-dihydroquinazolin-2-yl}pentanoic acid] and `CC(C)(C)c1ccc(-c2nc(-c3ccc4c(=O)n(-c5ccc(F)cc5)c(CCCCC(=O)O)nc4c3)no2)cc1` [Example 14C] cannot be ordered by Ki: at most 10 nM for the first, 10 to 50 nM for the second.

`O=C(O)CCCCc1nc2cc(C3=NOC(c4ccncc4)C3)ccc2c(=O)n1-c1ccc(F)cc1` (centres unmarked) [Example 15H] and `O=C(O)CCCCc1nc2cc(C3=NOC(c4ccncc4)C3)ccc2c(=O)n1-c1ccc(Cl)cc1` (centres unmarked) [Example 15M] cannot be ordered by Ki: 10 to 50 nM for the first, at most 10 nM for the second.

`O=C(O)CCCCc1nc2cc(C3=NOC(c4ccccc4)C3)ccc2c(=O)n1-c1ccc(Cl)cc1` (centres unmarked) [Example 15K] and `O=C(O)CCCCc1nc2cc(C3=NOC(c4ccccn4)C3)ccc2c(=O)n1-c1ccc(Cl)cc1` (centres unmarked) [Example 15L] cannot be ordered by Ki: at most 10 nM for the first, at most 10 nM for the second.

`COc1cccc(C2CC(c3ccc4c(=O)n(-c5ccc(F)cc5)c(CCCCC(=O)O)nc4c3)=NO2)c1` (centres unmarked) [Example 15N] and `COc1cccc(C2CC(c3ccc4c(=O)n(-c5ccc(Cl)cc5)c(CCCCC(=O)O)nc4c3)=NO2)c1` (centres unmarked) [Example 15o] cannot be ordered by Ki: at most 10 nM for the first, at most 10 nM for the second.

`O=C(O)CCCCc1nc2cc(C3=NOC(c4cccc(Cl)c4)C3)ccc2c(=O)n1-c1ccc(F)cc1` (centres unmarked) [Example 15P] and `N#Cc1ccc(C2CC(c3ccc4c(=O)n(-c5ccc(F)cc5)c(CCCCC(=O)O)nc4c3)=NO2)cc1` (centres unmarked) [Example 15Q] cannot be ordered by Ki: at most 10 nM for the first, at most 10 nM for the second.

`CC(C)(C)OC(=O)N1CCC2(CC1)CC(c1ccc3c(=O)n(-c4ccc(Cl)cc4)c(CCCCC(=O)O)nc3c1)=NO2` [Example 15T] and `CC(=O)N1CCC2(CC1)CC(c1ccc3c(=O)n(-c4ccc(Cl)cc4)c(CCCCC(=O)O)nc3c1)=NO2` [Example 15U] cannot be ordered by Ki: at most 10 nM for the first, 10 to 50 nM for the second.

`COCC1(c2ccccc2)CC(c2ccc3c(=O)n(-c4ccc(Cl)cc4)c(CCCCC(=O)O)nc3c2)=NO1` (centres unmarked) [Example 15W] and `N#CC1CC2(CC(c3ccc4c(=O)n(-c5ccc(Cl)cc5)c(CCCCC(=O)O)nc4c3)=NO2)C1` (centres unmarked) [Example 15Z] cannot be ordered by Ki: 10 to 50 nM for the first, at most 10 nM for the second.

`O=C(O)CCCCc1nc2cc(C3=NOC4(CCCCC4)C3)ccc2c(=O)n1-c1ccc(F)cc1` [Example 15X] and `O=C(O)CCCCc1nc2cc(C3=NOC4(CCCCC4)C3)ccc2c(=O)n1-c1ccc(Cl)cc1` [Example 15Y] cannot be ordered by Ki: at most 10 nM for the first, at most 10 nM for the second.

`O=C(O)CCCCc1nc2cc(-c3cn(Cc4ccccc4)nn3)ccc2c(=O)n1-c1ccc(F)cc1` [Example 17, 5-[7-(1-benzyl-1H-1,2,3-triazol-4-yl)-3-(4-fluorophenyl)-4-oxo-3,4-dihydroquinazolin-2-yl]pentanoic acid] gave a Ki of at most 10 nM.

With `O=C(O)CCCCc1nc2cc(-c3noc(-c4ccncc4)n3)ccc2c(=O)n1-c1ccc(F)cc1` [Example 14, 5-{3-(4-fluorophenyl)-4-oxo-7-[5-(pyridin-4-0)-1,2,4-oxadiazol-3-yl]-3,4-dihydroquinazolin-2-yl}pentanoic acid] the Ki was 10 to 50 nM and 17.2 nM.

Same assay, conditions: Ki, 3.0 nM [3H]PGD2, HEK-hCRTH2 membranes, 60 min, room temperature

`CC1(c2nc3ccccc3o2)CC(c2ccc3c(=O)n(-c4ccc(F)cc4)c(CCCCC(=O)O)nc3c2)=NO1` (single isomer, unassigned) [Example 35, 5-(7-(5-(benzo[d]oxazol-2-yl)-5-methyl-4,5-dihydroisoxazol-3-yl)-3-(4-fluorophenyl)-4-oxo-3,4-dihydroquinazolin-2-yl)pentanoic acid] and `CC1(c2ccccc2)CC(c2ccc3c(=O)n(-c4ccc(F)cc4)c(CCCCC(=O)O)nc3c2)=NO1` (centres unmarked) [Example 15E] cannot be ordered by Ki: at most 10 nM for the first, 10 to 50 nM for the second.

`CC1(c2nc3ccccc3o2)CC(c2ccc3c(=O)n(-c4ccc(F)cc4)c(CCCCC(=O)O)nc3c2)=NO1` (single isomer, unassigned) [Example 35G, 5-(7-(5-(benzo[d]oxazol-2-yl)-5-methyl-4,5-dihydroisoxazol-3-yl)-3-(4-fluorophenyl)-4-oxo-3,4-dihydroquinazolin-2-yl)pentanoic acid] and `CC1(c2ccccc2)CC(c2ccc3c(=O)n(-c4ccc(F)cc4)c(CCCCC(=O)O)nc3c2)=NO1` (centres unmarked) [Example 15F] cannot be ordered by Ki: 10 to 50 nM for the first, at most 10 nM for the second.
